Each compound was assayed on Solanum nigrum (SOLNI) (assay: Post-emergence biological efficacy, glasshouse pot test). Settings: 312 h, 1000 g/ha, after 13 days, 100=total damage, 0=no damage, read-out: Percentage damage caused to weed species SOLNI.
Format: in vivo
Experimental: (§1) Seeds of Alopecurus myosuroides (ALOMY), Setaria faberi (SETFA), Echinochloa crus-galli (ECHCG), Solanum nigrum (SOLNI), Amaranthus retroflexus (AMARE) and Ipomea hederaceae (IPOHE) were sown in standard soil in pots. After cultivation for 8 days under controlled conditions in a glasshouse (at 24/16° C., day/night; 14 hours light; 65% humidity), the plants were sprayed with an aqueous spray solution derived from the formulation of the technical active ingredient in acetone/water (50:50) solution containing 0.5% Tween 20 (polyoxyethylene sorbitan monolaurate, CAS RN 9005-64-5) to give a final dose of 250 or 1000 g/ha of test compound.
(§2) The test plants were then grown on under controlled conditions in a glasshouse (at 24/16° C., day/night; 14 hours light; 65% humidity) and watered twice daily. After 13 days the test was evaluated (100=total damage to plant; 0=no damage to plant).
`COC(=O)c1nc(-c2ccc(OC)s2)nc(N)c1Cl` [Compound 2-7, 4-Amino-5-chloro-6-methoxycarbonyl-2-(5-methoxythiophen-2-yl)-pyrimidine] was tested, and the pest or weed control at 1000 g/ha was 80%.
`COC(=O)c1nc(-c2cc(Cl)sc2Cl)nc(N)c1Cl` [Compound 2-19, 4-Amino-5-chloro-2-(2,5-dichlorothiophen-3-yl)-6-methoxycarbonyl pyrimidine] was tested, and the pest or weed control at 1000 g/ha was 70%.
For `COC(=O)c1nc(-c2ccoc2)nc(N)c1Cl` [Compound 2-34, 4-Amino-5-chloro-2-(furan-3-yl)-6-methoxycarbonyl pyrimidine], the pest or weed control at 1000 g/ha was 10%.

These compounds were tested on Amaranthus retroflexus (AMARE) in the same assay as above. Settings: 312 h, 1000 g/ha, after 13 days, 100=total damage, 0=no damage, read-out: Percentage damage caused to weed species AMARE.
Format: in vivo
Experimental: as §1, §2
With `COC(=O)c1nc(-c2ccc(OC)s2)nc(N)c1Cl` [Compound 2-7, 4-Amino-5-chloro-6-methoxycarbonyl-2-(5-methoxythiophen-2-yl)-pyrimidine] the pest or weed control at 1000 g/ha was 100%.
`COC(=O)c1nc(-c2cc(Cl)sc2Cl)nc(N)c1Cl` [Compound 2-19, 4-Amino-5-chloro-2-(2,5-dichlorothiophen-3-yl)-6-methoxycarbonyl pyrimidine] was tested, and the pest or weed control at 1000 g/ha was 100%.
`COC(=O)c1nc(-c2ccoc2)nc(N)c1Cl` [Compound 2-34, 4-Amino-5-chloro-2-(furan-3-yl)-6-methoxycarbonyl pyrimidine] gave a pest or weed control at 1000 g/ha of 30%.

The compounds below were run on Alopecurus myosuroides (ALOMY) in the same assay as above. Settings: 312 h, 1000 g/ha, after 13 days, 100=total damage, 0=no damage, read-out: Percentage damage caused to weed species ALOMY.
Format: in vivo
Experimental: as §1, §2
For `COC(=O)c1nc(-c2ccc(OC)s2)nc(N)c1Cl` [Compound 2-7, 4-Amino-5-chloro-6-methoxycarbonyl-2-(5-methoxythiophen-2-yl)-pyrimidine], the pest or weed control at 1000 g/ha was 0%.
Compound `COC(=O)c1nc(-c2cc(Cl)sc2Cl)nc(N)c1Cl` [Compound 2-19, 4-Amino-5-chloro-2-(2,5-dichlorothiophen-3-yl)-6-methoxycarbonyl pyrimidine] has a pest or weed control at 1000 g/ha of 0%.
Work on `COC(=O)c1nc(-c2ccoc2)nc(N)c1Cl` [Compound 2-34, 4-Amino-5-chloro-2-(furan-3-yl)-6-methoxycarbonyl pyrimidine] yielded a pest or weed control at 1000 g/ha of 10%.

These compounds were tested on Echinochloa crus-galli (ECHCG) in the same assay as above. Settings: 312 h, 1000 g/ha, after 13 days, 100=total damage, 0=no damage, read-out: Percentage damage caused to weed species ECHCG.
Format: in vivo
Experimental: as §1, §2
`COC(=O)c1nc(-c2ccc(OC)s2)nc(N)c1Cl` [Compound 2-7, 4-Amino-5-chloro-6-methoxycarbonyl-2-(5-methoxythiophen-2-yl)-pyrimidine] showed a pest or weed control at 1000 g/ha of 80%.
With `COC(=O)c1nc(-c2cc(Cl)sc2Cl)nc(N)c1Cl` [Compound 2-19, 4-Amino-5-chloro-2-(2,5-dichlorothiophen-3-yl)-6-methoxycarbonyl pyrimidine] the pest or weed control at 1000 g/ha was 10%.
Work on `COC(=O)c1nc(-c2ccoc2)nc(N)c1Cl` [Compound 2-34, 4-Amino-5-chloro-2-(furan-3-yl)-6-methoxycarbonyl pyrimidine] yielded a pest or weed control at 1000 g/ha of 0%.

What follows are compounds tested on Setaria faberi (SETFA) in the same assay as above. Settings: 312 h, 1000 g/ha, after 13 days, 100=total damage, 0=no damage, read-out: Percentage damage caused to weed species SETFA.
Format: in vivo
Experimental: as §1, §2
With `COC(=O)c1nc(-c2ccc(OC)s2)nc(N)c1Cl` [Compound 2-7, 4-Amino-5-chloro-6-methoxycarbonyl-2-(5-methoxythiophen-2-yl)-pyrimidine] the pest or weed control at 1000 g/ha was 70%.
Compound `COC(=O)c1nc(-c2cc(Cl)sc2Cl)nc(N)c1Cl` [Compound 2-19, 4-Amino-5-chloro-2-(2,5-dichlorothiophen-3-yl)-6-methoxycarbonyl pyrimidine] has a pest or weed control at 1000 g/ha of 30%.
`COC(=O)c1nc(-c2ccoc2)nc(N)c1Cl` [Compound 2-34, 4-Amino-5-chloro-2-(furan-3-yl)-6-methoxycarbonyl pyrimidine] was tested, and the pest or weed control at 1000 g/ha was 0%.

Each compound was assayed on Ipomea hederaceae (IPOHE) in the same assay as above. Settings: Ipomoea hederacea, 312 h, 1000 g/ha, after 13 days, 100=total damage, 0=no damage, read-out: Percentage damage caused to weed species IPONE.
Format: in vivo
Experimental: as §1, §2
In the case of `COC(=O)c1nc(-c2ccc(OC)s2)nc(N)c1Cl` [Compound 2-7, 4-Amino-5-chloro-6-methoxycarbonyl-2-(5-methoxythiophen-2-yl)-pyrimidine], the pest or weed control at 1000 g/ha is reported as 80%.
Compound `COC(=O)c1nc(-c2cc(Cl)sc2Cl)nc(N)c1Cl` [Compound 2-19, 4-Amino-5-chloro-2-(2,5-dichlorothiophen-3-yl)-6-methoxycarbonyl pyrimidine] has a pest or weed control at 1000 g/ha of 70%.
`COC(=O)c1nc(-c2ccoc2)nc(N)c1Cl` [Compound 2-34, 4-Amino-5-chloro-2-(furan-3-yl)-6-methoxycarbonyl pyrimidine] was tested, and the pest or weed control at 1000 g/ha was 50%.

What follows are compounds tested on Solanum nigrum (SOLNI) (assay: Pre-emergence biological efficacy, glasshouse pot test). Settings: 312 h, 1000 g/ha, after 13 days, 100=total damage, 0=no damage, read-out: Percentage damage caused to weed species SOLNI.
Format: in vivo
Experimental: as §1, with “one day” for “8 days”
(§3) The test plants were then grown under controlled conditions in the glasshouse (at 24/16° C., day/night; 14 hours light; 65% humidity) and watered twice daily. After 13 days the test was evaluated (100=total damage to plant; 0=no damage to plant).
With `COC(=O)c1nc(-c2ccc(OC)s2)nc(N)c1Cl` [Compound 2-7, 4-Amino-5-chloro-6-methoxycarbonyl-2-(5-methoxythiophen-2-yl)-pyrimidine] the pest or weed control at 1000 g/ha was 0%.
With `COC(=O)c1nc(-c2cc(Cl)sc2Cl)nc(N)c1Cl` [Compound 2-19, 4-Amino-5-chloro-2-(2,5-dichlorothiophen-3-yl)-6-methoxycarbonyl pyrimidine] the pest or weed control at 1000 g/ha was 20%.
For `COC(=O)c1nc(-c2ccoc2)nc(N)c1Cl` [Compound 2-34, 4-Amino-5-chloro-2-(furan-3-yl)-6-methoxycarbonyl pyrimidine], the pest or weed control at 1000 g/ha was 0%.

The compounds below were run on Amaranthus retroflexus (AMARE) in the same assay as above. Settings: 312 h, 1000 g/ha, after 13 days, 100=total damage, 0=no damage, read-out: Percentage damage caused to weed species AMARE.
Format: in vivo
Experimental: as §1, with “one day” for “8 days”
as §3
`COC(=O)c1nc(-c2ccc(OC)s2)nc(N)c1Cl` [Compound 2-7, 4-Amino-5-chloro-6-methoxycarbonyl-2-(5-methoxythiophen-2-yl)-pyrimidine] was tested, and the pest or weed control at 1000 g/ha was 90%.
`COC(=O)c1nc(-c2cc(Cl)sc2Cl)nc(N)c1Cl` [Compound 2-19, 4-Amino-5-chloro-2-(2,5-dichlorothiophen-3-yl)-6-methoxycarbonyl pyrimidine] showed a pest or weed control at 1000 g/ha of 20%.
Compound `COC(=O)c1nc(-c2ccoc2)nc(N)c1Cl` [Compound 2-34, 4-Amino-5-chloro-2-(furan-3-yl)-6-methoxycarbonyl pyrimidine] has a pest or weed control at 1000 g/ha of 0%.

Each compound was assayed on Alopecurus myosuroides (ALOMY) in the same assay as above. Settings: 312 h, 1000 g/ha, after 13 days, 100=total damage, 0=no damage, read-out: Percentage damage caused to weed species ALOMY.
Format: in vivo
Experimental: as §1, with “one day” for “8 days”
as §3
`COC(=O)c1nc(-c2ccc(OC)s2)nc(N)c1Cl` [Compound 2-7, 4-Amino-5-chloro-6-methoxycarbonyl-2-(5-methoxythiophen-2-yl)-pyrimidine] showed a pest or weed control at 1000 g/ha of 0%.
For `COC(=O)c1nc(-c2cc(Cl)sc2Cl)nc(N)c1Cl` [Compound 2-19, 4-Amino-5-chloro-2-(2,5-dichlorothiophen-3-yl)-6-methoxycarbonyl pyrimidine], the pest or weed control at 1000 g/ha was 0%.
`COC(=O)c1nc(-c2ccoc2)nc(N)c1Cl` [Compound 2-34, 4-Amino-5-chloro-2-(furan-3-yl)-6-methoxycarbonyl pyrimidine] showed a pest or weed control at 1000 g/ha of 0%.

Each compound was assayed on Echinochloa crus-galli (ECHCG) in the same assay as above. Settings: 312 h, 1000 g/ha, after 13 days, 100=total damage, 0=no damage, read-out: Percentage damage caused to weed species ECHCG.
Format: in vivo
Experimental: as §1, with “one day” for “8 days”
as §3
With `COC(=O)c1nc(-c2ccc(OC)s2)nc(N)c1Cl` [Compound 2-7, 4-Amino-5-chloro-6-methoxycarbonyl-2-(5-methoxythiophen-2-yl)-pyrimidine] the pest or weed control at 1000 g/ha was 60%.
`COC(=O)c1nc(-c2cc(Cl)sc2Cl)nc(N)c1Cl` [Compound 2-19, 4-Amino-5-chloro-2-(2,5-dichlorothiophen-3-yl)-6-methoxycarbonyl pyrimidine] was tested, and the pest or weed control at 1000 g/ha was 0%.
`COC(=O)c1nc(-c2ccoc2)nc(N)c1Cl` [Compound 2-34, 4-Amino-5-chloro-2-(furan-3-yl)-6-methoxycarbonyl pyrimidine] was tested, and the pest or weed control at 1000 g/ha was 0%.

What follows are compounds tested on Setaria faberi (SETFA) in the same assay as above. Settings: 312 h, 1000 g/ha, after 13 days, 100=total damage, 0=no damage, read-out: Percentage damage caused to weed species SETFA.
Format: in vivo
Experimental: as §1, with “one day” for “8 days”
as §3
For `COC(=O)c1nc(-c2ccc(OC)s2)nc(N)c1Cl` [Compound 2-7, 4-Amino-5-chloro-6-methoxycarbonyl-2-(5-methoxythiophen-2-yl)-pyrimidine], the pest or weed control at 1000 g/ha was 20%.
Compound `COC(=O)c1nc(-c2cc(Cl)sc2Cl)nc(N)c1Cl` [Compound 2-19, 4-Amino-5-chloro-2-(2,5-dichlorothiophen-3-yl)-6-methoxycarbonyl pyrimidine] has a pest or weed control at 1000 g/ha of 0%.
`COC(=O)c1nc(-c2ccoc2)nc(N)c1Cl` [Compound 2-34, 4-Amino-5-chloro-2-(furan-3-yl)-6-methoxycarbonyl pyrimidine] was tested, and the pest or weed control at 1000 g/ha was 0%.

These compounds were tested on Ipomea hederaceae (IPOHE) in the same assay as above. Settings: Ipomoea hederacea, 312 h, 1000 g/ha, after 13 days, 100=total damage, 0=no damage, read-out: Percentage damage caused to weed species IPOHE.
Format: in vivo
Experimental: as §1, with “one day” for “8 days”
as §3
Work on `COC(=O)c1nc(-c2ccc(OC)s2)nc(N)c1Cl` [Compound 2-7, 4-Amino-5-chloro-6-methoxycarbonyl-2-(5-methoxythiophen-2-yl)-pyrimidine] yielded a pest or weed control at 1000 g/ha of 20%.
`COC(=O)c1nc(-c2cc(Cl)sc2Cl)nc(N)c1Cl` [Compound 2-19, 4-Amino-5-chloro-2-(2,5-dichlorothiophen-3-yl)-6-methoxycarbonyl pyrimidine] showed a pest or weed control at 1000 g/ha of 30%.
Compound `COC(=O)c1nc(-c2ccoc2)nc(N)c1Cl` [Compound 2-34, 4-Amino-5-chloro-2-(furan-3-yl)-6-methoxycarbonyl pyrimidine] has a pest or weed control at 1000 g/ha of 0%.

From patent publication US20110136666A1, “CHEMICAL COMPOUNDS” (SYNGENTA CROP PROTECTION, INC., priority 2008, published 2011)
